Like-named read-outs stand apart in the source and are kept apart here.
Molecular target: T1, Human GLP-1 receptor (Homo sapiens, UniProt P43220)
T1 construct: expressed in transfected cells
Assay: Measurement of GLP-1 receptor agonist activity (cAMP assay)
Type: cell-based
Method: Test Example 1: (Measurement of GLP-1 Receptor Agonist Activity)
Human GLP-1 receptor stably expressing cells (hGLP-1R/CHO-K1 cells) are cultured in an α-MEM medium (Sigma) containing 10% FBS (Hyclone), 2% GlutaMAX (Gibco), 1% G418 (Nacalai Tesque), and 1% Penicillin-Streptomycin Mixed Solution (Sigma) at 37° C. under 5% CO2 conditions, and recovered by treating a 10 fold diluted 5.0 g/l-trypsin/5.3 mmol/l-EDTA solution (Nacalai Tesque) and cryopreserved.
A DMSO solution containing the compound of the present invention or human GLP-1 (7-36) (Phoenix Pharmaceuticals) is dispensed into a 384-well microplate (Greiner) at 62.5 nL/well, and in addition, 400 μM Forskolin (Nacalai Tesque) is dispensed therein at 7.5 nL/well. Subsequently, the frozen GLP-1 R/CHO-K1 cells are thawed in a thermostatic bath at 37° C., suspended in HBSS buffer (GIBCO) containing 0.1% BSA (Sigma), 20 mM HEPES (GIBCO), 0.1 mM IBMX (Sigma), and 0.2 mM RO20-1724 (Calbiochem) at 2×10^4 cells/mL, and the cell suspension is added at 6 μL/well. The solution was incubated at 37° C. for 1 hour and intracellular cAMP concentration is measured using cAMP Gs dynamic kit (Cisbio) according to the protocol attached to the product. Specifically, cAMP-d2 and Anti-cAMP-Cryptate are each added in an amount of 3 μL/well, the mixture is incubated at room temperature for 1 hour, and time-resolved fluorescence is measured using PHERAstar (BMG Labtech).
The dilution concentration or the dilution solvent are changed as necessary.
The compounds of the present invention were tested essentially as described above.

[1] = CHO-K1, hGLP-1R/CHO-K1 cells, cAMP, 100% = human GLP-1 (7-36) at 2 nM, 0% = DMSO only, read-out: Emax(%)
[2] = hGLP-1R/CHO-K1 cells, cAMP increase, 37° C. 1 hour

T1 sequence (P43220 24-463): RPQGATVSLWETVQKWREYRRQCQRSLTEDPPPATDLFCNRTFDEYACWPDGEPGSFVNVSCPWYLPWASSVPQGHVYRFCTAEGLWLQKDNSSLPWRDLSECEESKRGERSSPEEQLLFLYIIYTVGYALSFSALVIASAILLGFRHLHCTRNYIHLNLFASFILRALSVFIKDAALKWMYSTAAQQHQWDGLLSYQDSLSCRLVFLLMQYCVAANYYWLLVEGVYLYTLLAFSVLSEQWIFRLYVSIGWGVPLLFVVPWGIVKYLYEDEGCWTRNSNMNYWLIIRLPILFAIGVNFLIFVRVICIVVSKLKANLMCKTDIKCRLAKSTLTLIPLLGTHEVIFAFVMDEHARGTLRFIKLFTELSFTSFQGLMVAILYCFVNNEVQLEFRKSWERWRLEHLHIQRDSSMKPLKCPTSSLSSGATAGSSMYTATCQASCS

Structure (SMILES)	Emax [1] [%]	EC50 [2] [µM]	Emax (CHO-K1, maximum effect, cAMP increase in GLP-1 R/CHO-K1 cells, 2 nM human GLP-1 (7-36) = 100%, DMSO only = 0%, read-out: Emax) [%]	EC50 (cAMP increase in GLP-1 R/CHO-K1 cells, 2 nM human GLP-1 (7-36) = 100%, DMSO only = 0%) [µM]
CC(c1nc2ccc(C(=O)O)cc2n1C[C@@H]1CCO1)N1CCc2cc(C(F)(F)F)c(OCc3ccc(Cl)cc3F)cc2C1 (mixture of isomers) [Compound I-032]	146	0.0927	–	–
Cc1cc2c(cc1OCc1ccc(Cl)cc1F)CN(Cc1nc3ccc(C(=O)O)cc3n1C[C@@H]1CCO1)CC2 [Compound I-001]	75	0.0475	–	–
CCn1cncc1Cn1c(CN2CCc3cc(C)c(OCc4ccc(Cl)cc4F)cc3C2)nc2ccc(C(=O)O)cc21 [Compound I-002]	92.2	0.0433	–	–
Cc1cc2c(cc1OCc1ccc(Cl)cc1F)C(=O)N(Cc1nc3ccc(C(=O)O)cc3n1C[C@@H]1CCO1)CC2 [Compound I-004]	75.3	0.0439	–	–
Cc1cc2ccc(Cc3nc4ccc(C(=O)O)cc4n3C[C@@H]3CCO3)cc2nc1OCc1ccc(Cl)cc1F [Compound I-006]	86	–	–	–
O=C(O)c1ccc2nc(CN3CCc4cc(Br)c(OCc5ccc(Cl)cc5F)cc4C3)n(C[C@@H]3CCO3)c2c1 [Compound I-007]	75.7	0.0198	–	–
N#Cc1cc2c(cc1OCc1ccc(Cl)cc1F)CN(Cc1nc3ccc(C(=O)O)cc3n1C[C@@H]1CCO1)CC2 [Compound I-008]	84.3	–	–	–
Cc1cc2c(cc1OCc1ccc(Cl)cc1F)CN(Cc1nc3ccc(C(=O)O)nc3n1C[C@@H]1CCO1)CC2 [Compound I-009]	81.3	0.0273	–	–
Cc1cc2c(cc1OCc1ccc(Cl)cc1F)C(=O)N(Cc1nc3ccc(C(=O)O)nc3n1C[C@@H]1CCO1)CC2 [Compound I-011]	92.7	0.0708	–	–
Cc1cc2c(cc1OCc1ccc(C(F)(F)F)cn1)CN(Cc1nc3ccc(C(=O)O)cc3n1C[C@@H]1CCO1)CC2 [Compound I-015]	81.3	0.0743	–	–
Cc1cc2c(cc1OCc1ccc(Cl)cc1)CN(Cc1nc3ccc(C(=O)O)cc3n1C[C@@H]1CCO1)CC2 [Compound I-016]	79	0.0503	–	–
Cc1cc2c(cc1OCc1ccc(C(F)(F)F)cc1F)CN(Cc1nc3ccc(C(=O)O)cc3n1C[C@@H]1CCO1)CC2 [Compound I-020]	89	0.0758	–	–
O=C(O)c1ccc2nc(CN3CCc4cc(Cl)c(OCc5ccc(Cl)cc5F)cc4C3)n(C[C@@H]3CCO3)c2c1 [Compound I-022]	92.3	0.015	–	–
O=C(O)c1ccc2nc(CN3CCc4cc(Cl)c(OCc5ccc(Cl)cc5F)cc4C3)n(C[C@@H]3CCO3)c2n1 [Compound I-024]	92.7	0.0264	–	–
CC1c2cc(OCc3ccc(Cl)cc3F)ccc2CCN1Cc1nc2ccc(C(=O)O)cc2n1C[C@@H]1CCO1 (some centres unmarked) [Compound I-025]	–	–	78.7	0.109
Cc1cc2c(cc1OCc1ccc(Cl)cc1F)CN(Cc1nc3ncc(C(=O)O)cc3n1C[C@@H]1CCO1)CC2 [Compound I-028]	84	0.0786	–	–

Structure (SMILES)	Emax [1] [%]	EC50 [2] [µM]	Emax (CHO-K1, maximum effect, cAMP increase in GLP-1 R/CHO-K1 cells, 2 nM human GLP-1 (7-36) = 100%, DMSO only = 0%, read-out: Emax) [%]	EC50 (cAMP increase in GLP-1 R/CHO-K1 cells, 2 nM human GLP-1 (7-36) = 100%, DMSO only = 0%) [µM]
Cc1cc2c(cc1OCc1ccc(F)cc1F)CN(Cc1nc3ccc(C(=O)O)cc3n1C[C@@H]1CCO1)CC2 [Compound I-029]	81.3	0.0946	–	–
C[C@@H]1c2cc(OCc3ccc(Cl)cc3F)c(C(F)(F)F)cc2CCN1Cc1nc2ccc(C(=O)O)cc2n1C[C@@H]1CCO1 [Compound I-036]	66	0.0995	–	–
CS(=O)(=O)CCn1c(CN2CCc3cc(C(F)(F)F)c(OCc4ccc(Cl)cc4F)cc3C2)nc2ccc(C(=O)O)cc21 [Compound I-039]	83.3	0.0438	–	–
O=C(O)c1ccc2nc(CN3CCc4cc(C(F)(F)F)c(OCc5ccc(Cl)cc5F)cc4C3)n(C[C@@H]3CCCO3)c2c1 [Compound I-040]	147	0.0377	–	–
N#CCC1(Cn2c(CN3CCc4cc(C(F)(F)F)c(OCc5ccc(Cl)cc5F)cc4C3)nc3ccc(C(=O)O)cc32)CC1 [Compound I-041]	102	0.0452	–	–
O=C(O)c1ccc2nc(CN3CCc4cc(C(F)(F)F)c(OCc5ccc(Cl)cc5F)cc4C3)n(C[C@H]3CCO3)c2c1 [Compound I-042]	95	0.0738	–	–
O=C(O)c1ccc2nc(CN3CCc4cc(C(F)(F)F)c(OCc5ccc(Cl)cc5F)cc4C3)n(CC3(CF)CC3)c2c1 [Compound I-043]	109	0.0132	–	–
COCCn1c(CN2CCc3cc(C(F)(F)F)c(OCc4ccc(Cl)cc4F)cc3C2)nc2ccc(C(=O)O)cc21 [Compound I-045]	93.7	0.0815	–	–
O=C(O)c1ccc2nc(Cc3ccc4cc(C(F)(F)F)c(OCc5ccc(Cl)cc5F)nc4c3)n(C[C@@H]3CCO3)c2c1 [Compound I-046]	118	–	–	–
O=C(O)c1ccc2nc(CN3CCc4cc(C(F)(F)F)c(OCc5ccc(Cl)cc5F)cc4C3)n(CC3(C(F)F)CC3)c2c1 [Compound I-048]	130	0.0754	–	–
Cn1nncc1Cn1c(CN2CCc3cc(C(F)(F)F)c(OCc4ccc(Cl)cc4F)cc3C2)nc2ccc(C(=O)O)cc21 [Compound I-050]	67.7	0.238	–	–
O=C(O)c1ccc2nc(CN3CCc4cc(C(F)(F)F)c(OCc5ccc(Cl)cc5F)cc4C3)n(Cc3cccnc3)c2c1 [Compound I-051]	87.3	0.0242	–	–
O=C(O)c1ccc2nc(CN3CCc4cc(C(F)(F)F)c(OCc5ccc(Cl)cc5F)cc4C3)n(Cc3ncco3)c2c1 [Compound I-052]	92	0.0245	–	–
N#Cc1ccc(COc2cc3c(cc2C(F)(F)F)CCN(Cc2nc4ccc(C(=O)O)cc4n2C[C@@H]2CCO2)C3)c(F)c1 [Compound I-053]	115	0.0146	–	–
O=C(NS(=O)(=O)C1CC1)c1ccc2nc(CN3CCc4cc(C(F)(F)F)c(OCc5ccc(Cl)cc5F)cc4C3)n(C[C@@H]3CCO3)c2c1 [Compound I-055]	87.3	0.0788	–	–
O=C(O)c1ccc2nc(CN3CCc4cc(C(F)(F)F)c(OCc5ccc(Cl)c(F)c5F)cc4C3)n(C[C@@H]3CCO3)c2c1 [Compound I-059]	112	0.0299	–	–

Now from value to compound:

Emax [1] [%]	EC50 [2] [µM]	Emax (CHO-K1, maximum effect, cAMP increase in GLP-1 R/CHO-K1 cells, 2 nM human GLP-1 (7-36) = 100%, DMSO only = 0%, read-out: Emax) [%]	EC50 (cAMP increase in GLP-1 R/CHO-K1 cells, 2 nM human GLP-1 (7-36) = 100%, DMSO only = 0%) [µM]	Structure (SMILES)
103	0.00998	–	–	CCC1c2cc(OCc3ccc(Cl)cc3F)c(C(F)(F)F)cc2CCN1Cc1nc2ccc(C(=O)O)cc2n1C[C@@H]1CCO1 (mixture of isomers) [Compound I-044]
124	0.00872	–	–	O=C(O)c1ccc2nc(CN3CCc4cc(C(F)(F)F)c(OCc5ccc(Cl)cc5F)cc4C3C(F)F)n(C[C@@H]3CCO3)c2c1 (mixture of isomers) [Compound I-066]
112	0.0045	–	–	O=C(O)c1ccc2nc(CN3CCc4cc(C(F)(F)F)c(OCc5ccc(Cl)cc5F)cc4C3CF)n(C[C@@H]3CCO3)c2c1 (mixture of isomers) [Compound I-133]
86	0.00456	–	–	O=C(O)c1ccc2nc(CN3CCc4cc(C(F)(F)F)c(OCc5ccc(Cl)cc5F)cc4C3)n(C[C@@H]3CCO3)c2c1 [Compound I-023]
85	0.00635	–	–	O=C(O)c1ccc2nc(CN3CCc4cc(C(F)(F)F)c(OCc5ccc(Cl)cc5F)cc4C3)n(C[C@@H]3CCO3)c2n1 [Compound I-026]
80	0.00948	–	–	O=C(O)c1ccc2nc(CN3CCc4cc(C(F)F)c(OCc5ccc(Cl)cc5F)cc4C3)n(C[C@@H]3CCO3)c2c1 [Compound I-027]
92.3	0.00356	–	–	O=C(O)c1ccc2nc(CN3CCc4cc(C(F)(F)F)c(OCc5ccc(Cl)cc5F)cc4C3=O)n(C[C@@H]3CCO3)c2c1 [Compound I-030]
91	0.00892	–	–	O=C(O)c1ccc2nc(CN3CCc4cc(C(F)(F)F)c(OCc5ccc(Cl)cc5F)cc4C3=O)n(C[C@@H]3CCO3)c2n1 [Compound I-031]
103	0.00871	–	–	O=C(O)c1cc2c(cc1F)nc(CN1CCc3cc(C(F)(F)F)c(OCc4ccc(Cl)cc4F)cc3C1)n2C[C@@H]1CCO1 [Compound I-034]
126	0.000663	–	–	C[C@H]1c2cc(OCc3ccc(Cl)cc3F)c(C(F)(F)F)cc2CCN1Cc1nc2ccc(C(=O)O)nc2n1C[C@@H]1CCO1 [Compound I-037]
105	0.0043	–	–	O=C(O)c1ccc2nc(CN3CCc4cc(C(F)(F)F)c(OCc5ccc(OC(F)F)cc5F)cc4C3)n(C[C@@H]3CCO3)c2c1 [Compound I-047]
95	0.00503	–	–	CCn1cncc1Cn1c(CN2CCc3cc(C(F)(F)F)c(OCc4ccc(Cl)cc4F)cc3C2)nc2ccc(C(=O)O)cc21 [Compound I-049]
104	0.000948	–	–	O=C(O)c1ccc2nc(CN3CCc4cc(C(F)(F)F)c(OCc5ccc(Cl)cc5F)cc4C3)n(C[C@@H]3CCO3)c2c1F [Compound I-054]
110	0.00604	–	–	O=C(O)c1ccc2nc(CN3CCc4cc(C(F)(F)F)c(OCc5ccc(C(F)F)cc5F)cc4C3)n(C[C@@H]3CCO3)c2c1 [Compound I-056]

Reference: patent US20240217966A1, “PHARMACEUTICAL COMPOSITION CONTAINING GLP-1 RECEPTOR AGONIST HAVING FUSED RING” (Shionogi & Co., Ltd., priority 2021, published 2024)
